Measured values taken from patent US8211947B2, “Composition and method for treating and preventing musculoskeletal and connective tissue disorders” (priority 2008, dated 2012).

Tests used:
rheumatoid arthritis = test: Case study: patient with rheumatoid arthritis treated orally; type: in vivo, human; conditions: same patient, NSAIDs taken during the first 5 weeks of the disease onset
Method: This treatment was complemented with the regular practice of moderate physical exercises every 2-3 days, including exercises with weights, the application of cold or hot compresses, relaxation techniques, elevation of affected body parts, and at least 8 hours of sleep. Pain was treated with acetaminophen when needed. […] Then, the Omega 3-6-9 supplement was removed from the treatment and 100 mg niacin was added (Rite Aid Corporation, Harrisburg, Pa., USA) once a day during a week, twice a day for another week and 3 times daily for one more week (to a final dose of 300 mg/day). […] They never took DMARDs or steroids.

[1] = in fish and flax seed oils; cited from earlier work
[2] = natural vitamin K; cited from earlier work
[3] = tested on: undercarboxylated osteocalcin; conditions: healthy subjects, per day; cited from earlier work
osteoarthritis = conditions: subjects with OA, 3 g per day; cited from earlier work

With O=C(O)Cc1ccccc1Nc1c(Cl)cccc1Cl [diclofenac] the “benefit of NSAIDs” value (rheumatoid arthritis) was “without any significative beneficial result”.
For vitamin K, the solubility [1] is listed as “soluble” and the safe dose [2] is listed as “up to 15 milligrams per day”.
In the case of CC(C)Cc1ccc(C(C)C(=O)O)cc1 (stereo not drawn) [ibuprofen], the “benefit of NSAIDs” value (rheumatoid arthritis) is reported as “without any significative beneficial result”.
For CC1=C(C/C=C(\C)CCC[C@H](C)CCC[C@H](C)CCCC(C)C)C(=O)c2ccccc2C1=O [vitamin K1, 2-methyl-3-phytyl-1-4-naphthoquinone], the “daily intake at which circulating undercarboxylated osteocalcin began to decrease” value [3] is given as 300 µg.
In the case of NC(=O)c1cccnc1 [nicotinamide], the “NSAID medication and joint mobility compared with placebo controls” value (osteoarthritis) is given as “reduced their non-steroidal anti-inflammatory (NSAID) medication and increased joint mobility significantly”.
